Key:
complementary DNA = test: Melting temperature of PNA-DNA complexes (thermal denaturation); format: binding; settings: for Tm: PNA bound to complementary DNA; for ΔTm: increase over aegPNA 1a-DNA duplex
Description: Although the stabilizing effect of tetrahydrofuran for PNA-DNA duplex is slightly lower than that of cyclopentane (3d vs 9 and 2a, Table 2), it strikes a balance between water solubility and binding properties and, therefore the combination of those two backbone modifications could be tailor-made to meet the specific requirements.

[1] = test system: DNA with a single base mismatch; test: Discrimination of single base mismatches (Tm of mismatched PNA-DNA duplex); format: binding; settings: for ΔTm (Tm), TC mismatch: number in brackets / ΔTm (Tm), TG mismatch: number in brackets / ΔTm (Tm), TT mismatch: number in brackets: against fully matched duplex; for ΔTm (Tm), TC mismatch: number before the brackets / ΔTm (Tm), TG mismatch: number before the brackets / ΔTm (Tm), TT mismatch: number before the brackets: PNA-DNA duplex with single base mismatch
Description: The sequence specificity of thyclotide 3d was examined by determining the change in Tm of a PNA-DNA duplex when a single base mismatch is present. […] The large differences in melting temperature between matched PNA-DNA duplex and mismatch PNA-DNA of thyclotide 3d allows one to control hybridization conditions to exclude the formation of mismatched PNA-DNA by adjust the temperature. Such enhanced single base pair mismatch-discrimination capability could make thyclotide 3d become a powerful tool for the detection of point-mutations and single nucleotide polymorphisms (SNPs).

[2] = CD spectra, conformation of PNA; format: physicochemical
Method: The CD spectra of thyclotides 3a-3d were measured. […] However, in the case of thyclotides 3a-3d, distinct distinctive positive peaks around 220 and 269 nm and negative peaks around 204 and 247 nm were noticed. […] The amplitude of the cotton effects increases as more tetrahydrofuran modifications are introduced.

CD spectrum / conformation [2] | Substance | Tm (complementary DNA) | ΔTm (complementary DNA) | ΔTm (Tm), TC mismatch: number in brackets [1] | ΔTm (Tm), TG mismatch: number in brackets [1] | ΔTm (Tm), TT mismatch: number in brackets [1] | ΔTm (Tm), TC mismatch: number before the brackets [1] | ΔTm (Tm), TG mismatch: number before the brackets [1] | ΔTm (Tm), TT mismatch: number before the brackets [1] | difference in melting temperature between fully matched duplex and duplex with a single base mismatch (ΔTm), in words ([1]; compared with aegPNA, tcypPNA 2a and mixPNA 9)
 | GATGT*GATA-AEEA [3a] | 44.7 °C | 2.7 °C |  |  |  |  |  |  | 
 | G#A#T#G#T#G#A#T#A#-AEEA [2a, reference compound] | 93.7 °C | 51.7 °C | −30.6 | −20.6 | −22.8 |  |  |  | 
does not show any distinct peaks | GATGTGATA-AEEA [1a, reference compound] | 42.0 °C |  | −19.2 | −16.6 | −13.8 | 22.9 | 25.4 | 28.2 | 
 | G*A*T*G*T*G*A*T*A*-AEEA [3d] | 77 °C | 35 °C | −26.2 | −21.4 | −18.8 | 50.7 | 55.6 | 58.2 | significantly higher than that of the corresponding aegPNA
 | G*A*T*G#T#G#A*T*A*-AEEA [compound 9] | 84.5 °C | 42.5 °C | −27.4 | −20.3 | −19.5 | 57.7 |  |  | 
 | GAT*GTGAT*A-AEEA [3b] | 49.7 °C | 7.7 °C |  |  |  |  |  |  | 
 | GAT*GT*GAT*A-AEEA [3c] | 54.9 °C | 12.9 °C |  |  |  |  |  |  | 
